Measured values reported in patent US20090035345A1, “Nuclear Receptors Agonists for Treatment of Atherosclerosis and/or Related Cardiovascular Disease” (ACADEMISCH MEDISCH CENTRUM, BUREAU, priority 2005, published 2009).

Assays:
[1] = tested on: SMα-actin, calponin and p27Kip1 protein; experiment: Western blotting of stretched venous SMCs; assay type: cell-based, human; details: 25 μM 6-MP
Method: Sodium dodecyl sulfate-polyacrylamide gel electrophoresis was performed with cell lysates (30 microg per lane) and concentrated culture media (equivalent of 200 microl per lane). Proteins were transferred to nitrocellulose-Protran (Schleicher and Schuell, 's-Hertogenbosch, The Netherlands).
Expression of p27^Kip1 (BD Biosciences, Alphen a/d Rijn, The Netherlands), p21^Cip1 (BD), SM alpha-actin (DAKO), PAI-1 (MAI-12; Biopool, Umea, Sweden), TR3 (M-210; Santa Cruz Biotechnology, Santa Cruz, Calif.), calponin (clone hCP; Sigma) and alpha-tubulin (Cedar Lane, Hornby, Ontario, Canada) was studied, using the indicated antibodies directed against these proteins. Primary antibodies were incubated overnight at 4° C. in 5% Protifar plus (Nutricia, Cuijk, The Netherlands) in TBS. As secondary antibodies, horseradish peroxidase-conjugated goat anti-rabbit (for p27^Kip1 and TR3 detection) or goat anti-mouse (for all others) (BioRad 11 Laboratories Inc., Hercules, Calif.) in a dilution of 1:5000 in TBS were used.
Proteins were visualized by enhanced chemiluminescence detection (Lumi-Light^PLUS; Roche Diagnostics GmbH, Mannheim, Germany). Quantitative analysis was performed by the Lumi-Imager (Boehringer Mannheim, Mannheim, Germany). alpha-Tubulin staining served as a control for loading.

Nur77 = target: T1, Nur77 (Homo sapiens, UniProt P22736); experiment: Nur77 reporter (NurRE) luciferase assay in Nur77-expressing SMCs; assay type: cell-based
T1 construct: expressed in transfected cells; host or cells: cultured human smooth muscle cells (SMCs), lentivirally transduced
Method: Cells were electroporated using the Amaxa method(Amaxa, Germany) with nucleofector reagent for SMCs. In each transfection, 0.5−1.0×10^6 cells were used and 3.5 μg Nur77-reporter plasmid with 1.5 μg Renilla luciferase plasmid (containing the thymidine kinase promoter) to correct for cell number and transfection efficiency. The NUR77-reporter plasmid contained the Nur response element (NurRE) of the POMC-promoter in triplicate with the −34/+63 minimal promoter of POMC gene.^19 24 hours after transfection, cells were incubated with 6-MP (Sigma) for 24 hours and luciferase activity was assayed with the Dual luciferase reporter system (Promega, Madison, Wis.).
To investigate whether 6-MP increases Nur77 transcriptional activity in vascular cells, human SMCs were transduced with lentivirus encoding Nur77, resulting in expression in 85-90% of the infected cells and increased Nur77 mRNA levels compared to mock-infected SMCs (data not shown). […] Nur77-overexpressing SMCs were subsequently electroporated with the firefly luciferase reporter construct, containing the palindromic NurRE (Nur77 response element from the POMC-promoter) sequence (TGATATTTn6AAATGCCA) to monitor Nur77 transcriptional activity in combination with the thymidine kinase-renilla luciferase construct as a control for transfection efficiency.

human SMCs = experiment: Apoptosis of SMCs, Hoechst staining of nuclei; assay type: cell-based; details: human, 24 h
Method: Human SMCs were explanted from umbilical cord arteries. Cells were cultured in DMEM (Invitrogen Life Technology, Breda, The Netherlands) with 10% (v/v) fetal bovine serum (FBS) with penicillin and streptomycin (Invitrogen). Cells were used at passages five to seven. […] To determine cellular viability, cells were washed with PBS and subsequently incubated in medium in the presence of 0.5-mg/ml 3-(4,5-dimethylthiazol-2-yl)-2,5-diphenyltetrazolium bromide (MTT; Sigma Diagnostics, St. Louis). After two hours, medium was discarded, formazan crystals were dissolved in isopropanol and optical density was measured at 590 nm. Apoptosis was induced by incubating cells for 24 hours in medium with 0.25 μM staurosporine (Sigma). Subsequently, SMCs were fixed, stained with Hoechst dye and the relative number of apoptotic nuclei was determined.

[2] = In vitro release from drug-eluting poly(ε-caprolactone) cuffs; assay type: physicochemical; details: 0.5% and 1% cuffs, 4-week period
Method: Briefly, 6-MP was dissolved at different concentrations in blended, molten drug-polymer mix and cuffs were designed to fit around the femoral artery of mice. Drug-eluting cuffs are shaped as longitudinally cut cylinders with an internal diameter of 0.5 mm, an external diameter of 1.0 mm, a length of 2.0 mm and a weight of approximately 5.0 mg. Drug-eluting cuffs were loaded with 0.5% (w/w) and 1% (w/w) 6-MP and the in vitro release profiles were determined for a 4-week period, as described before (n=5/group).

[3] = tested on: cuff-induced neointima formation in mouse femoral artery; experiment: Femoral artery cuff murine model, 6-MP-eluting cuffs; assay type: in vivo; details: for cuff-induced neointima formation (intimal area): 4 weeks
From the text: All animal work was approved by AMC institutional regulatory authority and carried out in compliance with guidelines issued by the Dutch government. Wild-type FVB mice (Wt), transgenic mice expressing the full-length Nur77 gene (Nur77), or mice expressing a dominant-negative variant of Nur77 (ΔTA) (the latter two strains under control of the SM22α promoter, which directs the expression of transgenes specific to SMCs), in an FVB background, were used for experiments. Male mice, 10-12 weeks old, were fed a standard chow diet. At the time of surgery, mice were anaesthetized with an intraperitoneal injection of 5 mg/kg Dormicum (Roche, Basel, Switzerland), 0.5 mg/kg Dormitor (Orion, Helsinki, Finland) and 0.05 mg/kg Fentanyl (Janssen, Geel, Belgium). The femoral artery was dissected from its surroundings and loosely sheathed with a non-constrictive cuff. Either a control, empty cuff or a 6-MP eluting cuff (0.5% or 1% w/w) was used (n=6/group).
Wt and Nur77-overexpressing transgenic mice were sacrificed at 28 days after cuff placement, whereas ATA transgenic mice were sacrificed at 14 days after surgery. The thorax was opened and a mild pressure-perfusion (100 mmHg) with 4% (v/v) formaldehyde in 0.9% (w/v) NaCl was performed for 5 min by cardiac puncture. After perfusion, femoral arteries were harvested, fixed overnight in 4% (v/v) formaldehyde, dehydrated and paraffin embedded. Serial cross-sections (5 μm thick) for histological analysis were used throughout the entire length of the cuffed femoral artery. All samples were routinely stained with hematoxylin-phloxine-saffron (HPS). Weigert's elastin staining was used to visualize elastic laminae. Ten equally spaced cross-sections were used in all mice to quantify intimal lesions. Using image analysis software (Leica Qwin, Wetzlar, Germany), total cross sectional medial area was measured between the external and internal elastic lamina; total cross sectional intimal area was measured between the endothelial cell monolayer and the internal elastic lamina.
In vitro experiments were repeated at least twice and are presented as mean±SD and were analyzed by the Student t-test. Animal experiments are presented as mean±SEM and were analyzed using the Mann-Whitney U-test (SPSS 11.5 for Windows). P-values less than 0.05 were regarded as statistically significant.

[4] = Nur77 transgenic mice, 0.5% 6-MP cuff
[5] = Nur77 transgenic mice, 1% 6-MP cuff

T1 sequence (P22736 whole entry): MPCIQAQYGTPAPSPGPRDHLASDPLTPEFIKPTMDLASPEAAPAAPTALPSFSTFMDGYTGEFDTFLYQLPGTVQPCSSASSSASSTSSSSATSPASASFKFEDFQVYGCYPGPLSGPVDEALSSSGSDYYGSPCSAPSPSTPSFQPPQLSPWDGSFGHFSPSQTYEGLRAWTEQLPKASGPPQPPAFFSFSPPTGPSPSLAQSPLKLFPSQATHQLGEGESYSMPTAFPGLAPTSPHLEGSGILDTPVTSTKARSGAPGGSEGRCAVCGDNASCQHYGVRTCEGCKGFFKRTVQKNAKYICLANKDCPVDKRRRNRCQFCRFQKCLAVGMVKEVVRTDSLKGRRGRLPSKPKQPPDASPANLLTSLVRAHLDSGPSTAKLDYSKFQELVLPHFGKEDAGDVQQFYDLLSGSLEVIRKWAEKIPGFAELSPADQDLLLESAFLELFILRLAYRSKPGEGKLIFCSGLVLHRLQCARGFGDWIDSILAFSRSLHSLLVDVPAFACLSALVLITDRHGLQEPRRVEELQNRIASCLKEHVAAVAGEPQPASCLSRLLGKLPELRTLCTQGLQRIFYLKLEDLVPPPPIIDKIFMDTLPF

## Sc1ncnc2nc[nH]c12 [6-MP, 6-mercaptopurine]
[1]
  SMα-actin and calponin as well as p27Kip1 protein expression: increases
Nur77; 50 μM, 24 hours
  increase in Nur77 activity (luciferase): 10 fold
Nur77; 24 hours in the presence of 6-MP
  Nur77 transcriptional activity: enhances Nur77 activity
Human SMCs
  apoptosis (apoptotic nuclei): 3%±2%
[2]
  in vitro release profile: sustained and dose-dependent release
[3]; [4]
  intima/media ratio: 0.47±0.05
  cuff-induced neointima formation (intimal area): substantially reduced
[3]; [5]
  intima/media ratio: 0.30±0.06
  cuff-induced neointima formation (intimal area): significant inhibition
[3]; Wt and Nur77 transgenic mice
  medial areas of the cuffed femoral arteries: No changes
[3]; Wt mice, 0.5% 6-MP cuff
  intima/media ratio: 0.75±0.05
  cuff-induced neointima formation (intimal area): did not show a decrease
[3]; Wt mice, 1% 6-MP cuff
  intima/media ratio: 0.51±0.03
  cuff-induced neointima formation (intimal area): significant inhibition
[3]; ΔTA transgenic mice, 0.5% 6-MP cuff, 2 weeks
  neointima formation (intimal area): no significant effect
[3]; ΔTA transgenic mice, 1% 6-MP cuff, 2 weeks
  neointima formation (intimal area): no significant effect
[3]; ΔTA transgenic mice, 2 weeks
  media thickness: did not change
